row,melting point [°C],Structure (SMILES)
1,251 to 253,"Nc1cnc2c(NC(CO)CO)nc(SCc3cccc(F)c3F)nc2n1 [Example 2, 2-[[7-amino-2-[[(2,3-difluorophenyl)methyl]thio]-4-pteridinyl]amino]-1,3-propanediol]"
2,185 to 189,"CC[C@H](CO)Nc1nc(SCc2cccc(F)c2F)nc2nc(N)cnc12 [Example 4, (2R)-2-[[7-Amino-2-[[(2,3-difluorophenyl)methyl]thio]-4-pteridinyl]amino]-1-butanol]"
3,220 to 227,"CC(CO)(CO)Nc1nc(SCc2cccc(F)c2F)nc2nc(N)cnc12 [Example 5, 2-[[7-Amino-2-[[(2,3-difluorophenyl)methyl]thio]-4-pteridinyl]amino]-2-methyl-1,3-propanediol]"
4,224 to 226,"C[C@H](CO)Nc1nc(SCc2cccc(Cl)c2F)nc2nc(N)cnc12 [Example 13, (2R)-2-[[7-amino-2-[[(3-chloro-2-fluorophenyl)methyl]thio]-4-pteridinyl]amino]-1-propanol]"
